Assay results as given in patent publication US6489329B2, “Pharmaceutical compositions for the treatment of rhinitis” (UCB S.A., priority 1996, dated 2002).
Counter-ions that a name gives are not always drawn.

Tests used:
[1] = test system: patients suffering from perennial allergic rhinitis; experiment: phase III multicenter double-blind 3-week study in perennial allergic rhinitis; type: in vivo, human; settings: for Mean of maximal 5-symptom scores, Visit 2: control visit one week after visit 1, investigators' 4-point scale 0-3; for global evaluation by the investigators: patients in categories "Good improvement" and "No more symptoms", grouped: end of treatment (visit 3), capsule morning and evening, 5-point scale; for Mean of maximal 5-symptom scores, Visit 1: enrolment visit, investigators' 4-point scale 0-3; for PDS0 (percentage of days with a maximal symptom score equal to 0), mean / PDS1 (percentage of days with a maximal symptom score inferior or equal to 1), mean: patients' daily record card, five symptoms, 3-week study
Protocol: (§1) The efficacy and safety of a composition of the invention were evaluated for the treatment of rhinitis, especially perennial and seasonal rhinitis, by the following phase III multicenter, double-blind studies. The composition of the invention was compared to:
(§2) For each study, patients enrolled were ranged in three therapeutic groups and were treated as follows:
(§3) The patients' clinical evaluations made by the investigators at the end of the studies were based on a 5-point scale (0=worsening; 1=no change; 2=slight improvement; 3=good improvement; 4=no more symptoms). The Cochran-Mantel-Haenszel test was used to compare the frequency distribution of the three groups, and for specific comparisons.
(§4) At home, patients had to fill a daily record card where the five following symptoms were evaluated: sneezing, runny nose, blocked nose, itchy nose and itchy eyes. The symptoms scores were based on a 4-point scale (0: absent; 1: mild; 2: moderate; 3: severe). […] Global comparisons were made using the Kruskal-Wallis test and specific comparisons were made with the Wilcoxon rank sum test.
(§5) Three visits were planned during the study: enrolment visit (Visit 1), control visit (Visit 2) one week after visit 1 and final visit (Visit 3). At visits 1 and 2, investigators evaluated the specific symptoms of allergic rhinitis (sneezing, rhinorrhea, nasal obstruction, nasal pruritus and ocular pruritus) using the 4-point scale (0: absent; 1: mild; 2: moderate; 3: severe). The rhinitis severity was evaluated by taking into account the maximal score of the five symptoms. The three groups were compared using the Cochran-Mantel-Haenszel test based on ranks.
(§6) The patients were asked about possible adverse events at each control visit. In each treatment group, adverse events were counted and grouped in classes. The frequency distributions of these adverse effect numbers were compared using the Cochran-Mantel-Haenszel test.
A total of 554 patients were enrolled in this 3-week study. These patients ranged in age from 12 to 67 years old. They had to suffer from perennial allergic rhinitis diagnosed at least one year prior to the study, with radio allergosorbent test (RAST) or prick-test positive to perennial allergens including dust, mites and/or animal danders. On enrolment day, patients had to have the following symptoms: nasal obstruction, sneezing and rhinorrhea.

[2] = test system: patients suffering from pollen-associated allergic rhinitis; experiment: phase III multicenter double-blind 2-week study in pollen-associated (seasonal) allergic rhinitis; type: in vivo, human; settings: for Incidence of asthenia / Incidence of headache / Incidence of insomnia / Incidence of somnolence / proportion of patients with at least one adverse effect / PDS0 (percentage of days with a maximal symptom score equal to 0), mean / PDS1 (percentage of days with a maximal symptom score inferior or equal to 1), mean: 2-week study; for Mean of maximal 5-symptom scores, Visit 2: control visit one week after visit 1, investigators' 4-point scale 0-3; for global evaluation: patients in categories "Good improvement" and "No more symptoms", grouped: end of 2-week study, capsule morning and evening, 5-point scale; for Mean of maximal 5-symptom scores, Visit 1: enrolment visit, investigators' 4-point scale 0-3; for PDS0 (percentage of days with a maximal symptom score equal to 0), mean / PDS1 (percentage of days with a maximal symptom score inferior or equal to 1), mean: maximal score of five symptoms
Protocol: as §1, §2, §3, §4, §5, §6
A total of 687 patients enrolled in this 2-week study, their ages ranging from 12 to 67 years. They had to be suffering from pollen-associated allergic rhinitis, with a prick-test or a RAST positive to pollen. […] On enrolment day, the patients had to be experiencing nasal obstruction and at least two of the four following symptoms: sneezing, rhinorrhea, nasal pruritus, ocular pruritus.

For `O=C(O)COCCN1CCN(C(c2ccccc2)c2ccc(Cl)cc2)CC1` (racemic) [Cetirizine, 2-[2-[4-[(4-chlorophenyl)phenylmethyl]-1-piperazinyl]ethoxy]-acetic dihydrochloride], the “sedation, frequency of adverse event” value ([1]; comparison between the three groups) was “more frequent”, the “Mean of maximal 5-symptom scores, Visit 2” value (“Mean … Visit 2” for short) [1] was 1.82 and the “global evaluation by the investigators: patients in categories "Good improvement" and "No more symptoms", grouped” value [1] was 46%. For the same molecule, the “Mean of maximal 5-symptom scores, Visit 1” value (“Mean … Visit 1” for short) [1] was 2.66, the “PDS0 (percentage of days with a maximal symptom score equal to 0), mean” value [1] was 6.60% and the “PDS1 (percentage of days with a maximal symptom score inferior or equal to 1), mean” value [1] was 43.26%. It also gave an Incidence of asthenia [2] of 4%, an Incidence of headache [2] of 4% and an Incidence of insomnia [2] of 0%. For the same molecule, the Incidence of somnolence [2] was 6%, the “proportion of patients with at least one adverse effect” value [2] was 23% and the “Mean … Visit 2” value [2] was 1.76. The “global evaluation: patients in categories "Good improvement" and "No more symptoms", grouped” value [2] was 56%, the “Mean … Visit 1” value [2] was 2.77 and the “PDS0 (percentage of days with a maximal symptom score equal to 0), mean” value [2] was 6.41%. The “PDS1 (percentage of days with a maximal symptom score inferior or equal to 1), mean” value [2] was 39.81%.
For `CN[C@@H](C)[C@@H](O)c1ccccc1.Cl` [Pseudoephedrine, (1S,2S)2-methylamino-1-phenylpropan-1-ol hydrochloride], the “Mean … Visit 2” value [1] was 1.81, the “global evaluation by the investigators: patients in categories "Good improvement" and "No more symptoms", grouped” value [1] was 48% and the “Mean … Visit 1” value [1] was 2.72. For the same molecule, the “PDS0 (percentage of days with a maximal symptom score equal to 0), mean” value [1] was 6.97%, the “PDS1 (percentage of days with a maximal symptom score inferior or equal to 1), mean” value [1] was 41.57% and the Incidence of asthenia [2] was 1%. It also gave an Incidence of headache [2] of 7%, an Incidence of insomnia [2] of 8.5% and an Incidence of somnolence [2] of 3%. For the same molecule, the “proportion of patients with at least one adverse effect” value [2] was 30%, the “Mean … Visit 2” value [2] was 1.82 and the “global evaluation: patients in categories "Good improvement" and "No more symptoms", grouped” value [2] was 58%. The “Mean … Visit 1” value [2] was 2.78, the “PDS0 (percentage of days with a maximal symptom score equal to 0), mean” value [2] was 5.44% and the “PDS1 (percentage of days with a maximal symptom score inferior or equal to 1), mean” value [2] was 37.21%.
